Molecular target: Complement factor I (Homo sapiens) (UniProt P05156)
Experiment: In vitro activity against human Complement factor I

Sequence of Complement factor I (Homo sapiens) (P05156 whole entry, looked up): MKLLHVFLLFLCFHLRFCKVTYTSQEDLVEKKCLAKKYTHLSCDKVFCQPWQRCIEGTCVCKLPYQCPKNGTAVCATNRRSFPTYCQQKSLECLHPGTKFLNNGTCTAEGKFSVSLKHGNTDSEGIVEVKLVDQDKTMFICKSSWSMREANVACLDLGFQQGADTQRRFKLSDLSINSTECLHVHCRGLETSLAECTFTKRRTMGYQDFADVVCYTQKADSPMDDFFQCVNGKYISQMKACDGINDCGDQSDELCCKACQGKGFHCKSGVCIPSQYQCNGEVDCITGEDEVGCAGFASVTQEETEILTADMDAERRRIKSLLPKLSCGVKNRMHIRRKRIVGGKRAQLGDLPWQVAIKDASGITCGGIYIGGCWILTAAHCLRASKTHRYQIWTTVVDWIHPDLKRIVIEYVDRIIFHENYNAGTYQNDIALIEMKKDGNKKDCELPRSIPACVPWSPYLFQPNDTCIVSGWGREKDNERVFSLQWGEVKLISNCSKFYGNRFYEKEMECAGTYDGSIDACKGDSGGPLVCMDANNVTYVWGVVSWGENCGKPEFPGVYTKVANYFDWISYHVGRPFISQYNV

IC50: 44 µM
SMILES: CS(=O)(=O)c1ccccc1-c1ccc(NC(=O)c2cc(C(F)(F)F)nn2-c2cccc(CN)c2)c(F)c1

Source: BindingDB's records for doi:10.1021/jm000409z (Dupont Pharmaceuticals, 2001)
